{"source": "paper PMC4076210", "about": "“Discovery of Novel AKT Inhibitors with Enhanced Anti-Tumor Effects in Combination with the MEK Inhibitor” (PLoS ONE, 2014)", "key": {"[1]": {"target": "T1, MLK1(h) (Homo sapiens, UniProt P80192)", "T1 construct": "purchased Millipore KinaseProfiler", "T1 sequence (P80192 whole entry)": "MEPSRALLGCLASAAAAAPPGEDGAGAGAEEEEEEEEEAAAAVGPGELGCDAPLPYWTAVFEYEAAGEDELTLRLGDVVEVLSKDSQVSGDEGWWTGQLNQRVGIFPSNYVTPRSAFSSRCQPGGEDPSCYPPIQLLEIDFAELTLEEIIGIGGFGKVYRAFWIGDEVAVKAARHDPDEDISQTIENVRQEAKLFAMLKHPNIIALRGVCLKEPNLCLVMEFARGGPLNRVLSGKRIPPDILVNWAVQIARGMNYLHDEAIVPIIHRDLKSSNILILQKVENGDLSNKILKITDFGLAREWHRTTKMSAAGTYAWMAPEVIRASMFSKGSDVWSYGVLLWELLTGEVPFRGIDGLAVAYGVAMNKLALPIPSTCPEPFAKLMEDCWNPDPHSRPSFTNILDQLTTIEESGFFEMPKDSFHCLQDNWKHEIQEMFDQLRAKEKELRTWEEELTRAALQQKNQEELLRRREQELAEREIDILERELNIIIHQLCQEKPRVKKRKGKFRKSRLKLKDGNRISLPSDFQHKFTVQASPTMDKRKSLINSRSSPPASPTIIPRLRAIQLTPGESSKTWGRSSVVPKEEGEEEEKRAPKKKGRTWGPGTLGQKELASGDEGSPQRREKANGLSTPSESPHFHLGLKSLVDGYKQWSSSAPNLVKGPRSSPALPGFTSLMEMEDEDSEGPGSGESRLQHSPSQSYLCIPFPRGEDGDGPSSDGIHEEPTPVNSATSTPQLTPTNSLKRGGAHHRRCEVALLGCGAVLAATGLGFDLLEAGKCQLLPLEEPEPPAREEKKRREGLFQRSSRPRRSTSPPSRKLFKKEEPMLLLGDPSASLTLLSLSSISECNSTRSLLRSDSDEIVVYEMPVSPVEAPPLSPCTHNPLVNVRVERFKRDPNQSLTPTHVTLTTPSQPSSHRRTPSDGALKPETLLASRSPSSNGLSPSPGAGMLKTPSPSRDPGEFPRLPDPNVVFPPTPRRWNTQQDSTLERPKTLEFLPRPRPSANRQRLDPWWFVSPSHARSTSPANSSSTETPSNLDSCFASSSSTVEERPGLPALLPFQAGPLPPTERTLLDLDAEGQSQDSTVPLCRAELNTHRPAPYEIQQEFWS", "test": "Kinase panel", "format": "biochemical"}, "[2]": {"target": "T2, SRPK1(h) (Homo sapiens, UniProt Q96SB4)", "T2 construct": "purchased Millipore KinaseProfiler", "T2 sequence (Q96SB4 whole entry)": "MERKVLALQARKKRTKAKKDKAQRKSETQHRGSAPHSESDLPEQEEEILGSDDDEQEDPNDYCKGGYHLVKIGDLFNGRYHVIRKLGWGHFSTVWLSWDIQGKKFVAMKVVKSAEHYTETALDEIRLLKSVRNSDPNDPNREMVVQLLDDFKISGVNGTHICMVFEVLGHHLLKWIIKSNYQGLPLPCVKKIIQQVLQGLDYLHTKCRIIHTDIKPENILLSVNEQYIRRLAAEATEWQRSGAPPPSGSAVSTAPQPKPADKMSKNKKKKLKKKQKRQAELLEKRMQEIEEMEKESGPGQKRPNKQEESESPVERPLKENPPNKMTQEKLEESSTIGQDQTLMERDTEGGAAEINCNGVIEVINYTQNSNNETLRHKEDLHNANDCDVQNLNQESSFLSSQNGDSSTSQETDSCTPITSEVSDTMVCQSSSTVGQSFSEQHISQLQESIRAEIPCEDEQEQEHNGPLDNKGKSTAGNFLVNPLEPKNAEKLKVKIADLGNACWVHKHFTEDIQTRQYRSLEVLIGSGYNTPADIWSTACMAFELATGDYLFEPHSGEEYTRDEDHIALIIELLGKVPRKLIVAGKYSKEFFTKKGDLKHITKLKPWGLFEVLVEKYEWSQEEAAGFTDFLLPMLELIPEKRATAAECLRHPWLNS", "test": "Kinase panel", "format": "biochemical"}, "[3]": {"system": "CK1(y)", "test": "Kinase panel", "format": "biochemical, yeast"}, "[4]": {"target": "RSK1 (Homo sapiens, UniProt Q15418)", "sequence (Q15418 whole entry)": "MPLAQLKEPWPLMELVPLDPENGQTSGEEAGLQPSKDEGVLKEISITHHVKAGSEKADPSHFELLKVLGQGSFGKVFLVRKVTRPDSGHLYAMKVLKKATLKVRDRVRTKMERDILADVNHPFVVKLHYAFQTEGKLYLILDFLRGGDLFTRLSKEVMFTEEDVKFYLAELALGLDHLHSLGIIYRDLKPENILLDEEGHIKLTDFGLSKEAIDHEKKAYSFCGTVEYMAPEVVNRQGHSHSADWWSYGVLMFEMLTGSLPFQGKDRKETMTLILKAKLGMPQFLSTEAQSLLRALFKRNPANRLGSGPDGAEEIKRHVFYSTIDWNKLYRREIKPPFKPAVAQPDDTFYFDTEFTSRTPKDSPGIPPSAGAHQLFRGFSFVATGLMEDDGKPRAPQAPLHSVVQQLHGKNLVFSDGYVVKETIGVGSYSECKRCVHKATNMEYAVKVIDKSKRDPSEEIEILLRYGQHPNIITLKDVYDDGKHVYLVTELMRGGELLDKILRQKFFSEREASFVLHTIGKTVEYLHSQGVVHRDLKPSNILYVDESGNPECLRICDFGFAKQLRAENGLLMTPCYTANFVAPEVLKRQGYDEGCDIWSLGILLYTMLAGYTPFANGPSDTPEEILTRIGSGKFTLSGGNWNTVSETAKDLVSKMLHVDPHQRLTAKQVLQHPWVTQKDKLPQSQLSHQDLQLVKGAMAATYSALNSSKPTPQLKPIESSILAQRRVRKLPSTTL", "test": "Kinase IC50 assay", "format": "biochemical"}, "[5]": {"target": "PKCμ (Homo sapiens, UniProt Q15139)", "test": "Kinase IC50 assay", "format": "biochemical"}, "[6]": {"target": "T3, Mer(h) (Homo sapiens, UniProt Q12866)", "T3 construct": "purchased Millipore KinaseProfiler", "T3 sequence (Q12866 21-999)": "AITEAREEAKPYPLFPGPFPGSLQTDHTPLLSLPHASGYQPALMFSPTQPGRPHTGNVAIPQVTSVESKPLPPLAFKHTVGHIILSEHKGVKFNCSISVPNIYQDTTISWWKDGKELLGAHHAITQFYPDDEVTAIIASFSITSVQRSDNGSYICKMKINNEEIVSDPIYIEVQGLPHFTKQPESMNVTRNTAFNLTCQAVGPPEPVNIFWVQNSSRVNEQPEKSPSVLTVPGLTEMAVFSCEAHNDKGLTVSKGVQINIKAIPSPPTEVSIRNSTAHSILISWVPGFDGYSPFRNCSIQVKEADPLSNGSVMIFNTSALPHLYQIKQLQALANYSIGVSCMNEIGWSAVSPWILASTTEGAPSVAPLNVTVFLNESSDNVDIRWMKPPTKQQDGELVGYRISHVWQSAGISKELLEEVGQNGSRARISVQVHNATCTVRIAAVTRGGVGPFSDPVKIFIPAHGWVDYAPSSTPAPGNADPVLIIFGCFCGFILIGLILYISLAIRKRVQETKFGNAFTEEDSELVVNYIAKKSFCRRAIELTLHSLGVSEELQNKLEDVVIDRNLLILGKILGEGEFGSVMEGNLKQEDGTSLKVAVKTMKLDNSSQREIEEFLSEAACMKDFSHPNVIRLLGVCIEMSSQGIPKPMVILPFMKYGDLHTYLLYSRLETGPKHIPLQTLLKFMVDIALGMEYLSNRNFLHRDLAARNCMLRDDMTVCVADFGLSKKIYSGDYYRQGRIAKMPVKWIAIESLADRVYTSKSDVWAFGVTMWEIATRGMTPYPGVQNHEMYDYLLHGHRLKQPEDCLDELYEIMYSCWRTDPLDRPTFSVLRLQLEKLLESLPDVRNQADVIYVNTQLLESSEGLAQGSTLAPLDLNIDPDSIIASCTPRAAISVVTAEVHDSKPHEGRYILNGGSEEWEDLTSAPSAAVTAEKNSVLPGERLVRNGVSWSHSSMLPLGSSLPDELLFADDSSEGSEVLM", "test": "Kinase panel", "format": "biochemical"}, "[7]": {"target": "T4, Lyn(h) (Homo sapiens, UniProt P07948)", "T4 construct": "purchased Millipore KinaseProfiler", "T4 sequence (P07948 whole entry)": "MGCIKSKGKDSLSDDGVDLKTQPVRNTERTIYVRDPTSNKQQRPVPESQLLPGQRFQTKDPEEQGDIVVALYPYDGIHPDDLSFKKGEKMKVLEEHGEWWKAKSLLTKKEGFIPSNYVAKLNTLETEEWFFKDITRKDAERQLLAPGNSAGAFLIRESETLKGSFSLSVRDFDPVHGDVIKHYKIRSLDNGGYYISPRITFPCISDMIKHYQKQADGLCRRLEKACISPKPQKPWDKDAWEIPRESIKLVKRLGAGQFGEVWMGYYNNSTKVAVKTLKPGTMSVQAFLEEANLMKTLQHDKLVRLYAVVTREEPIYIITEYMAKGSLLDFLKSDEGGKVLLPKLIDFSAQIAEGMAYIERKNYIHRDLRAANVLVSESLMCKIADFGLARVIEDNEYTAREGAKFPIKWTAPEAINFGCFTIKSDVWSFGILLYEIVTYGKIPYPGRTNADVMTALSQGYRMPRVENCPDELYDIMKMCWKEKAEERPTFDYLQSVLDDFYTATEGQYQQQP", "test": "Kinase panel", "format": "biochemical"}, "[8]": {"target": "T5, Syk(h) (Homo sapiens, UniProt P43405)", "T5 construct": "purchased Millipore KinaseProfiler", "test": "Kinase panel", "format": "biochemical"}, "[9]": {"target": "T6, EphA2(h) (Homo sapiens, UniProt P29317)", "T6 construct": "purchased Millipore KinaseProfiler", "T6 sequence (P29317 24-976)": "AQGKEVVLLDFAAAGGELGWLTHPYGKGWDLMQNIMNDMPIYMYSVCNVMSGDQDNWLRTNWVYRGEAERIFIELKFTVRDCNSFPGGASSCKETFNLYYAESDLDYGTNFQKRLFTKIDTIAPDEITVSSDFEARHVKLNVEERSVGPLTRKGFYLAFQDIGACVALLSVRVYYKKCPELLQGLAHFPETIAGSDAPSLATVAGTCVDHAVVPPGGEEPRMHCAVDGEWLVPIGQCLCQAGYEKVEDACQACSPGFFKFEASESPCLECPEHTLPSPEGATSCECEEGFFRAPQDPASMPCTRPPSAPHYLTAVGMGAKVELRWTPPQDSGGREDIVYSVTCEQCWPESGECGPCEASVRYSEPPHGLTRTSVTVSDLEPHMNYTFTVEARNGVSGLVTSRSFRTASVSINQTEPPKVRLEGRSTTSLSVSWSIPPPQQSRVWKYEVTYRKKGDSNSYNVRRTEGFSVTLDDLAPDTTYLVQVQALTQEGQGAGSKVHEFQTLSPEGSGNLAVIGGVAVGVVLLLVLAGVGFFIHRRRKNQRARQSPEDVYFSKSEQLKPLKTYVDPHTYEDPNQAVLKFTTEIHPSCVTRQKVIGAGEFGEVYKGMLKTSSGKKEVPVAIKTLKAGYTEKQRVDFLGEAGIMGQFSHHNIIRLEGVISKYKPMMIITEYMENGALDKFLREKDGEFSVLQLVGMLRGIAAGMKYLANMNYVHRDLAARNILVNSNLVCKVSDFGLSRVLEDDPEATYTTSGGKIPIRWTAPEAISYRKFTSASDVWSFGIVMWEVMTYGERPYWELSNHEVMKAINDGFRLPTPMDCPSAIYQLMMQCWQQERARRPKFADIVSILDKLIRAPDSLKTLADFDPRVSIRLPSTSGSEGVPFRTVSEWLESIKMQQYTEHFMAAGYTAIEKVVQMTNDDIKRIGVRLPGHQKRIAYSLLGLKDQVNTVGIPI", "test": "Kinase panel", "format": "biochemical"}, "[10]": {"target": "T7, LOK(h) (Homo sapiens, UniProt O94804)", "T7 construct": "purchased Millipore KinaseProfiler", "T7 sequence (O94804 whole entry)": "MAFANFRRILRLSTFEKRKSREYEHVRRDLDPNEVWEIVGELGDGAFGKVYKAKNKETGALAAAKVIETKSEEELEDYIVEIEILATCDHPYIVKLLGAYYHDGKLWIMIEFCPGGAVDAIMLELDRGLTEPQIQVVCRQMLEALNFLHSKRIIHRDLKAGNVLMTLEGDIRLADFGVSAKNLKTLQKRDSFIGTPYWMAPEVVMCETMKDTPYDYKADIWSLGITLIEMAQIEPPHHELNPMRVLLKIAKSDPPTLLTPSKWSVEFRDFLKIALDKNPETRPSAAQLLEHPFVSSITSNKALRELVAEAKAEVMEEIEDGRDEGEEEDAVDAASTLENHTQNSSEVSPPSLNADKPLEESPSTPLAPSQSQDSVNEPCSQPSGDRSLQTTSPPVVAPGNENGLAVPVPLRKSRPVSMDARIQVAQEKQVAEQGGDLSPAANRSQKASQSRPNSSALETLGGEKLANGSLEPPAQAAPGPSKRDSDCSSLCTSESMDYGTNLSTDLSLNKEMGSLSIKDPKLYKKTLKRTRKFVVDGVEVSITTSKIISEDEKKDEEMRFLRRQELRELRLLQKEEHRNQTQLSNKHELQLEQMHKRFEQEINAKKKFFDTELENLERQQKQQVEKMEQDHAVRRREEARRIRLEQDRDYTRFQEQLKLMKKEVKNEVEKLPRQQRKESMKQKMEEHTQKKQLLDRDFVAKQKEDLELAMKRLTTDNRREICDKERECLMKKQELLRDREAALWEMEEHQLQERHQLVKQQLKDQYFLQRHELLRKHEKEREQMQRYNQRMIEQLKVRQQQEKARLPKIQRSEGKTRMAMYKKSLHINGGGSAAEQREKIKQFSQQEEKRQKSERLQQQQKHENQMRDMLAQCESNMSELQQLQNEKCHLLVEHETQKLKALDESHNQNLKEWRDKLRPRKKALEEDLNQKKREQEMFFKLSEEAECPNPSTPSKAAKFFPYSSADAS", "test": "Kinase panel", "format": "biochemical"}, "[11]": {"target": "T8, DYRK2(h) (Homo sapiens, UniProt Q92630)", "T8 construct": "purchased Millipore KinaseProfiler", "T8 sequence (Q92630 1-601)": "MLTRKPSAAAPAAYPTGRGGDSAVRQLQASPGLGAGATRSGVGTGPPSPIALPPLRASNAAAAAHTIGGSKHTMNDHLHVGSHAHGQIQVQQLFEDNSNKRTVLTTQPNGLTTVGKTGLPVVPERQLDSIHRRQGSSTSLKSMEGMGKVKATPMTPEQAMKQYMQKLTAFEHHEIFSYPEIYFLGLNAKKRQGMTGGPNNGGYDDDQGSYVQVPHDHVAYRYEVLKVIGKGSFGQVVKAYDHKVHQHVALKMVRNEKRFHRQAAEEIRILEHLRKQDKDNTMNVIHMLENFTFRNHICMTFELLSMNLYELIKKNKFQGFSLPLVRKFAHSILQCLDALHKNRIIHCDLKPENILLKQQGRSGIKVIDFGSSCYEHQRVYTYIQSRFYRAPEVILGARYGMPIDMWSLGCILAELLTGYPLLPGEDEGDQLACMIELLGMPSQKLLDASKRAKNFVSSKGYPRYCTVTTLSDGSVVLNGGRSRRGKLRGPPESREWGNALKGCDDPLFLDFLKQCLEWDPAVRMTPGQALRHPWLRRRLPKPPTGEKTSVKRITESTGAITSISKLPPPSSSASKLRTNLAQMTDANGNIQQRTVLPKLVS", "test": "Kinase panel", "format": "biochemical"}}, "note": "Read-outs that look alike come from different tables or passages of the source.", "data": [{"smiles": "Cn1ncc(Cl)c1-c1cc(C(=O)N[C@H](CN)Cc2cccc(F)c2)sc1Cl", "note": "[GSK2110183]", "values": [{"measurement": "inhibition at 0.5 µM", "setting": "[1]", "result": -8, "unit": "%"}, {"measurement": "inhibition at 10 µM", "setting": "[1]", "result": 11, "unit": "%"}, {"measurement": "inhibition at 0.5 µM", "setting": "[2]", "result": -1, "unit": "%"}, {"measurement": "inhibition at 10 µM", "setting": "[2]", "result": 18, "unit": "%"}, {"measurement": "% Inhibition", "setting": "[3]; 0.5 µM", "result": 3, "unit": "%"}, {"measurement": "% Inhibition", "setting": "[3]; 10 µM", "result": 54, "unit": "%"}, {"measurement": "IC50", "setting": "[4]", "result": 316, "unit": "nM"}, {"measurement": "IC50", "setting": "[5]", "result": "> 1000", "unit": "nM"}, {"measurement": "inhibition at 0.5 µM", "setting": "[6]", "result": 2, "unit": "%"}, {"measurement": "inhibition at 10 µM", "setting": "[6]", "result": 65, "unit": "%"}, {"measurement": "inhibition at 0.5 µM", "setting": "[7]", "result": -12, "unit": "%"}, {"measurement": "inhibition at 10 µM", "setting": "[7]", "result": 7, "unit": "%"}, {"measurement": "inhibition at 0.5 µM", "setting": "[8]", "result": 3, "unit": "%"}, {"measurement": "inhibition at 10 µM", "setting": "[8]", "result": 39, "unit": "%"}, {"measurement": "inhibition at 0.5 µM", "setting": "[9]", "result": -17, "unit": "%"}, {"measurement": "inhibition at 10 µM", "setting": "[9]", "result": -4, "unit": "%"}, {"measurement": "inhibition at 0.5 µM", "setting": "[10]", "result": -9, "unit": "%"}, {"measurement": "inhibition at 10 µM", "setting": "[10]", "result": 5, "unit": "%"}, {"measurement": "inhibition at 0.5 µM", "setting": "[11]", "result": 2, "unit": "%"}, {"measurement": "inhibition at 10 µM", "setting": "[11]", "result": 24, "unit": "%"}]}, {"smiles": "Cn1ncc(Cl)c1-c1cc(C(=O)N[C@H](CN)Cc2ccc(F)c(F)c2)oc1Cl", "note": "[GSK2141795]", "values": [{"measurement": "inhibition at 0.5 µM", "setting": "[1]; 0.5 µM, read-out: % Inhibition", "result": -14, "unit": "%"}, {"measurement": "inhibition at 10 µM", "setting": "[1]; 10 µM, read-out: % Inhibition", "result": 45, "unit": "%"}, {"measurement": "inhibition at 0.5 µM", "setting": "[2]; 0.5 µM, read-out: % Inhibition", "result": 5, "unit": "%"}, {"measurement": "inhibition at 10 µM", "setting": "[2]; 10 µM, read-out: % Inhibition", "result": 17, "unit": "%"}, {"measurement": "% Inhibition", "setting": "[3]; 0.5 µM", "result": 35, "unit": "%"}, {"measurement": "% Inhibition", "setting": "[3]; 10 µM", "result": 93, "unit": "%"}, {"measurement": "IC50", "setting": "[4]", "result": 200, "unit": "nM"}, {"measurement": "IC50", "setting": "[5]", "result": 690, "unit": "nM"}, {"measurement": "inhibition at 0.5 µM", "setting": "[6]; 0.5 µM, read-out: % Inhibition", "result": 10, "unit": "%"}, {"measurement": "inhibition at 10 µM", "setting": "[6]; 10 µM, read-out: % Inhibition", "result": 63, "unit": "%"}, {"measurement": "inhibition at 0.5 µM", "setting": "[7]; 0.5 µM, read-out: % Inhibition", "result": -10, "unit": "%"}, {"measurement": "inhibition at 10 µM", "setting": "[7]; 10 µM, read-out: % Inhibition", "result": 41, "unit": "%"}, {"measurement": "inhibition at 0.5 µM", "setting": "[8]; 0.5 µM, read-out: % Inhibition", "result": -18, "unit": "%"}, {"measurement": "inhibition at 10 µM", "setting": "[8]; 10 µM, read-out: % Inhibition", "result": 35, "unit": "%"}, {"measurement": "inhibition at 0.5 µM", "setting": "[9]; 0.5 µM, read-out: % Inhibition", "result": 25, "unit": "%"}, {"measurement": "inhibition at 10 µM", "setting": "[9]; 10 µM, read-out: % Inhibition", "result": 39, "unit": "%"}, {"measurement": "inhibition at 0.5 µM", "setting": "[10]; 0.5 µM, read-out: % Inhibition", "result": -14, "unit": "%"}, {"measurement": "inhibition at 10 µM", "setting": "[10]; 10 µM, read-out: % Inhibition", "result": 11, "unit": "%"}, {"measurement": "inhibition at 0.5 µM", "setting": "[11]; 0.5 µM, read-out: % Inhibition", "result": 16, "unit": "%"}, {"measurement": "inhibition at 10 µM", "setting": "[11]; 10 µM, read-out: % Inhibition", "result": 64, "unit": "%"}]}]}
